Measured values reported in patent US9580398B2, “Compounds, compositions, and methods for modulating ferroptosis and treating excitotoxic disorders” (The Trustees of Columbia University in the City of New York, priority 2012, dated 2017).
Where a SMILES comes first, the peptide text is derived from it. [ ]: non-standard residue; d: D form. The star is where a group is joined. Nle = CCCC[C@H](N)C(=O)O; Cbz = O=C(OCc1ccccc1)*; CH2F = FC*

system: ROS production in HT-1080 cells; test: Analysis of reactive oxygen species production by flow cytometry (H2DCFDA, C11-BODIPY, MitoSOX); assay type: cell-based, human; settings: not given

SMILES | effect on erastin-induced ROS accumulation
N#CC(=C(/N)Sc1ccccc1N)/C(C#N)=C(\N)Sc1ccccc1N [U0126] | prevented the accumulation of H2DCFDA-sensitive ROS

same assay, conditions: HT-1080 cells; 6 hours; erastin 10 μM, rotenone 250 nM

SMILES | MitoSOX-sensitive mitochondrial ROS production
C=C(C)[C@H]1Cc2c(ccc3c2O[C@@H]2COc4cc(OC)c(OC)cc4[C@@H]2C3=O)O1 [rotenone] | enhanced MitoSOX-sensitive ROS production

same assay, conditions: erastin 10 μM; HT-1080 cells; H2DCFDA, C11-BODIPY

SMILES | effect on erastin-induced ROS accumulation
Cc1c(C)c2c(c(C)c1O)CCC(C)(C(=O)O)O2 (centres unmarked) [trolox] | prevented the accumulation of H2DCFDA-sensitive ROS

system: HT-1080, BJeLR and Calu-1 cells; test: Modulatory profiling of small molecule cell death inhibitors against erastin; assay type: cell-based, human; settings: erastin 10 μM, 24 hours, 10-point, 4-fold dilution series
Procedure: The day before the experiment, cells were seeded in black, 384-well clear bottom plates (Corning) at a density of 1,000 cells/well using a Beckman Biomek FX Workstation. All compounds (except 3-methyladenine and chloroquine, which were diluted in water) were diluted in DMSO at 250 times the final highest test concentration, and aliquoted across a 384-well plate (Greiner, Monroe, N.C.). A ten-point, 4-fold dilution series of each inhibitor in DMSO was made using a multichannel pipette. Replicates of this mother plate were stored at −20° C. […] Medium was removed from cells and replaced with 36 μL medium containing DMSO (0.1%) or erastin (10 μM final concentration). Using the Biomek FX, 4 μL were then transferred from each inhibitor daughter plate into the DMSO-containing or erastin-containing assay plates. For 3-methyladenine and chloroquine, inhibitors were prepared fresh in media at 10-fold the final concentration in the presence of DMSO or 10 μM erastin. These solutions were manually pipetted onto cells in 384-well format. Assay plates were incubated at 37° C. for 24 hours. Viability was assessed using Alamar Blue.
The modulatory effect (Me) for drug-drug interactions was computed as follows. First, plate-based background correction was performed using Alamar Blue values from empty (cell-free) wells included on each plate. Next, within each experiment, 100% viability is determined as the average Alamar Blue score for cells treated with modulator=DMSO and lethal=DMSO, and all Alamar Blue values were scaled from 0 to 1 with the DMSO×DMSO condition=1. The individual effects of each modulator and lethal (e.g. in the presence of DMSO) at all tested doses were then ascertained. […] Next, BExp was compared to the actual observed viability. […] By default, Me in DMSO-treated cells is equal to 0. […] Me values for each inhibitor-lethal drug combination were hierarchically clustered and plotted as a heatmap using the heatmaps.2 function of the gplots library in R.

SMILES | modulation of erastin-induced death
N#CC(=C(/N)Sc1ccccc1N)/C(C#N)=C(\N)Sc1ccccc1N [U0126] | rescued from erastin-induced death
CO/C1=C\C(C)=C\[C@@H](C)[C@@H](O)[C@@H](C)C/C(C)=C/C=C/[C@H](OC)[C@@H]([C@@H](C)[C@@H](O)[C@H](C)[C@@]2(O)C[C@@H](O)[C@H](C)[C@@H](C(C)C)O2)OC1=O [bafilomycin A1] | not consistently modulated
CN1C(=O)C(Cc2c[nH]c3ccccc23)NC1=S (centres unmarked) [necrostatin-1] | not consistently modulated
CCCC[C@@H](C=O)NC(=O)[C@H](CC(C)C)NC(=O)[C@H](CC(C)C)NC(C)=O [ALLN] (Ac-Leu-Leu-[Nle]-aldehyde) | not consistently modulated
Cc1c(C)c2c(c(C)c1O)CCC(C)(C(=O)O)O2 (centres unmarked) [trolox] | rescued from erastin-induced death
CCOC(=O)[C@H]1O[C@@H]1C(=O)N[C@@H](CC(C)C)C(=O)NCCC(C)C [E64d] | not consistently modulated
CCN(CC)CCCC(C)Nc1ccnc2cc(Cl)ccc12 (centres unmarked) [chloroquine] | not consistently modulated
COC(=O)C[C@H](NC(=O)[C@H](C)NC(=O)[C@@H](NC(=O)OCc1ccccc1)C(C)C)C(=O)CF [z-VAD-fmk] (Cbz-Val-Ala-Asp(OMe)-CH2F) | not consistently modulated
Cn1cnc(N)c2ncnc1-2 [3-methyladenine] | not consistently modulated

system: HT-1080 cells; test: Erastin-induced death in HT-1080 cells with co-treated inhibitors (viability, microscopy); assay type: cell-based, human; settings: HT-1080 and BJeLR cells; media with glucose and Gln; AOA 2 mM
Procedure: (§1) Cell viability was typically assessed in 384-well format by Alamar Blue (Invitrogen) fluorescence (ex/em 530/590) measured on a Victor3 platereader (Perkin Elmer, Waltham, Mass.). In some experiments, Trypan Blue dye exclusion counting was performed using an automated cell counter (ViCell, Beckman-Coulter Inc., Brea, Calif.). Cell viability in test conditions is reported as a percentage relative to the negative control treatment.
Phase contrast images were acquired using an AMG EVOS FL (Advanced Microscopy Group) microscope equipped with a 10× phase-contrast objective. Three independent fields were acquired for each experimental condition. Representative samples from one field of view are shown.

SMILES | effect on erastin-induced ferroptosis (glutamine metabolism modulators)
COC(=O)CCC(=O)C(=O)OC [DMK, dimethyl alphaketoglutarate] | lethality of erastin was restored
O=C(O)C(Cl)Cl [DCA, dichloroacetic acid] | had no effect
NOCC(=O)O [AOA, aminooxyacetic acid] | rescued

same assay, conditions: HT-1080 cells

SMILES | effect of co-treatment on erastin-induced death
Cc1ccc(N(CC(=O)O)CC(=O)O)c(OCCOc2cc3cc(-c4ncc(C(=O)O)o4)oc3cc2N(CC(=O)O)CC(=O)O)c1 [Fura-2] | had no effect on erastin-induced death
CC(=O)OCOC(=O)CN(CC(=O)OCOC(C)=O)c1ccccc1OCCOc1ccccc1N(CC(=O)OCOC(C)=O)CC(=O)OCOC(C)=O [BAPTA-AM] | had no effect on erastin-induced death
O=C(O)CN(CCOCCOCCN(CC(=O)O)CC(=O)O)CC(=O)O [EGTA] | had no effect on erastin-induced death

same assay, conditions: HT-1080 cells; added up to 6 hours after erastin

SMILES | protection from death on late addition
N#CC(=C(/N)Sc1ccccc1N)/C(C#N)=C(\N)Sc1ccccc1N [U0126] | substantial protection from death
Cc1c(C)c2c(c(C)c1O)CCC(C)(C(=O)O)O2 (centres unmarked) [trolox] | substantial protection from death
c1ccc(-c2ccccn2)nc1 [2,2-bipyridyl] | substantial protection from death

system: erastin (10 μM)-treated HT-1080 cells; test: Inhibition of death in erastin (10 μM)-treated HT-1080 cells, viability by Alamar Blue; assay type: cell-based, human; settings: Homo sapiens, HT-1080
Procedure: as §1
Flow cytometry data was analyzed using FloJo (9.3.2, Tree Star, Inc., Ashland, Oreg.). Chemical structures were drawn using ChemDraw Ultra (Cambridgesoft, Cambridge, Mass.). Computational determination of log P (Slog P function) was performed using MOE 2010.10 (Chemical Computing Group, Montreal, […].). Viability data was analyzed using Excel (Microsoft Corp., […].). Summary data and heatmaps were generated using R. Dose-response curves were computed by 4-parameter logistic regression in Prism 5.0c (GraphPad Software). Images were manipulated using Photoshop CS4 and Illustrator CS4 (Adobe, San Jose, Calif.).
The ability of various compounds disclosed herein to inhibit death in erastin (10 μM)-treated HT-1080 cells were tested. Cell viability was assessed by Alamar Blue. EC50 values (nM) were computed from dose response curves.

SMILES | EC50
Nc1ccccc1NC1CCCCC1 [SRS8-75, N1-cyclohexylbenzene-1,2-diamine] | 330 nM
NCCOCCOC(=O)c1ccc(NC2CCCCC2)c(N)c1 [SRS8-43, 2-(2-aminoethoxy)ethyl 3-amino-4-(cyclohexylamino)benzoate] | 420 nM

same assay, conditions: Homo sapiens, HT-1080, inhibition of death in erastin (10 μM)-treated HT-1080 cells; Alamar Blue; from dose response curves

SMILES | EC50
CCOC(=O)c1ccc(NC2CCCCC2)c([N+](=O)[O-])c1 [SRS8-24, ethyl 4-(cyclohexylamino)-3-nitrobenzoate] | > 10000 nM
CCOC(=O)c1cnc(NC2CCCCC2)c(N)c1 [SRS14-86, ethyl 5-amino-6-(cyclohexylamino)pyridine-3-carboxylate] | 544 nM
CCOC(=O)c1cnc(NC2CCCCC2)c(NCc2ccncc2)c1 [SRS14-92, ethyl 6-(cyclohexylamino)-5-(pyridin-4-ylmethylamino)pyridine-3-carboxylate] | 194 nM
CCOC(=O)c1ccc(NC2CCCCC2)c(NCc2ccccn2)c1 [SRS12-46, ethyl 4-(cyclohexylamino)-3-(pyridin-2-ylmethylamino)-benzoate] | 32 nM
CCOC(=O)c1ccc(NC2CCNCC2)c(N)c1 [SRS8-81, ethyl 3-amino-4-(piperidin-4-ylamino)benzoate] | 350 nM
CCOC(=O)c1cc(N)c(NC2CCCCC2)cc1C [SRS14-58, ethyl 5-amino-4-(cyclohexylamino)-2-methylbenzoate] | 28 nM
CCOC(=O)c1ccc(NC2CCCCC2)c(NCc2cc(F)cc(F)c2)c1 [SRS12-59, ethyl 4-(cyclohexylamino)-3-(3,5-difluorobenzylamino)-benzoate] | 95 nM
CCOC(=O)c1ccc(NC23CC4CC(CC(C4)C2)C3)c(NCc2ccncc2)c1 [SRS15-24, ethyl 4-(1-adamantylamino)-3-((pyridin-4-ylmethyl)amino)-benzoate] | 9 nM
CCOC(=O)c1ccc(NC2CCCCC2)c(NCc2ccc([N+](=O)[O-])cc2)c1 [SRS12-36, ethyl 4-(cyclohexylamino)-3-((4-nitrobenzyl)amino)benzoate] | 35 nM
CCOC(=O)c1ccc(NC2CCC2)c(N)c1 [SRS8-71, ethyl 3-amino-4-(cyclobutylamino)benzoate] | 265 nM
CCOC(=O)c1ccc(NC2CCCCC2)c(NCc2ccc(F)c(C#N)c2)c1 [SRS12-54, ethyl 3-(3-cyano-4-fluorobenzylamino)-4-(cyclohexylamino)-benzoate] | 158 nM
CCOC(=O)c1ccc(NC2CCC(C(C)(C)C)CC2)c(NCc2cncnc2)c1 (centres unmarked) [SRS13-37, ethyl 4-(4-tert-butylcyclohexylamino)-3-(pyrimidin-5-ylmethylamino)benzoate] | 15 nM
CCOC(=O)c1ccc(NC2CCCCC2)c(NCc2cncnc2)c1 [SRS13-35, ethyl 4-(cyclohexylamino)-3-(pyrimidin-5-ylmethylamino)-benzoate] | 27 nM
CCCCCCCCN(CCCCCCCC)c1ccc(C(=O)OCC)cc1N [SRS12-12, ethyl 3-amino-4-(dioctylamino)benzoate] | > 10000 nM
CCOC(=O)c1cc(N)c(NC2CCCCC2)cc1F [SRS14-55, ethyl 5-amino-4-(cyclohexylamino)-2-fluorobenzoate] | 104 nM

same assay, conditions: erastin 10 μM; HT-1080 cells

SMILES | ability to prevent erastin-induced death
CCOC(=O)c1ccc(NC2CCCCC2)c([N+](=O)[O-])c1 [SRS8-24, ethyl 4-(cyclohexylamino)-3-nitrobenzoate] | destroyed the antioxidant capability of Fer-1, as well as its ability to prevent erastin (10 μM)-induced death

same assay, conditions: inhibition of death in erastin (10 μM)-treated HT-1080 cells; Alamar Blue; from dose response curves

SMILES | EC50
CCOC(=O)c1ccc(NC2CCC(C(=O)OC(C)(C)C)CC2)c(N)c1 (centres unmarked) [SRS8-46, ethyl 3-amino-4-(4-(tert-butoxycarbonyl)cyclohexylamino) benzoate] | 515 nM

system: not listed separately; test: 2,2-diphenyl-1-picrylhydrazyl (DPPH) assay, cell-free antioxidant potential; settings: test compound 0.05 mM, absorbance at 517 nm
Procedure: The stable radical DPPH (Blois, 1958) was dissolved in methanol to a final concentration of 0.05 mM. 1 mL of DPPH solution was added to 2 μL of each test compound dissolved in DMSO. The final concentration of each test compound was 0.05 mM. Samples were inverted several times and allowed to incubate at room temperature for 10 minutes. Samples were then aliquoted to white 96-well solid-bottom dishes (Corning) and absorbance at 517 nm was recorded using a TECAN M200 plate reader. All values were normalized to background (methanol only). The experiment was repeated twice. Results within each trial normalized to DMSO (=1.0), then averaged across trials.

SMILES | intrinsic antioxidant capability (DPPH)
CCOC(=O)c1ccc(NC2CCCCC2)c([N+](=O)[O-])c1 [SRS8-24, ethyl 4-(cyclohexylamino)-3-nitrobenzoate] | destroyed the antioxidant capability
